Source: patent publication US9388179B2, “N-substituted indazole sulfonamide compounds with selective activity in voltage-gated sodium channels” (Merck Sharp & Dohme Corp., priority 2012, dated 2016)
pIC50: −log10 of the molar value.

What was measured:
[1] = target: T1, human Nav1.5 channels stably expressed in HEK 293 cells (Homo sapiens, UniProt Q14524); test: PatchXpress 7000 automated patch-clamp, inactivated state block; assay type: cell-based; settings: PatchXpress technique
T1 construct: expressed in transfected cells; host or cells: HEK 293
T1 sequence (Q14524 whole entry): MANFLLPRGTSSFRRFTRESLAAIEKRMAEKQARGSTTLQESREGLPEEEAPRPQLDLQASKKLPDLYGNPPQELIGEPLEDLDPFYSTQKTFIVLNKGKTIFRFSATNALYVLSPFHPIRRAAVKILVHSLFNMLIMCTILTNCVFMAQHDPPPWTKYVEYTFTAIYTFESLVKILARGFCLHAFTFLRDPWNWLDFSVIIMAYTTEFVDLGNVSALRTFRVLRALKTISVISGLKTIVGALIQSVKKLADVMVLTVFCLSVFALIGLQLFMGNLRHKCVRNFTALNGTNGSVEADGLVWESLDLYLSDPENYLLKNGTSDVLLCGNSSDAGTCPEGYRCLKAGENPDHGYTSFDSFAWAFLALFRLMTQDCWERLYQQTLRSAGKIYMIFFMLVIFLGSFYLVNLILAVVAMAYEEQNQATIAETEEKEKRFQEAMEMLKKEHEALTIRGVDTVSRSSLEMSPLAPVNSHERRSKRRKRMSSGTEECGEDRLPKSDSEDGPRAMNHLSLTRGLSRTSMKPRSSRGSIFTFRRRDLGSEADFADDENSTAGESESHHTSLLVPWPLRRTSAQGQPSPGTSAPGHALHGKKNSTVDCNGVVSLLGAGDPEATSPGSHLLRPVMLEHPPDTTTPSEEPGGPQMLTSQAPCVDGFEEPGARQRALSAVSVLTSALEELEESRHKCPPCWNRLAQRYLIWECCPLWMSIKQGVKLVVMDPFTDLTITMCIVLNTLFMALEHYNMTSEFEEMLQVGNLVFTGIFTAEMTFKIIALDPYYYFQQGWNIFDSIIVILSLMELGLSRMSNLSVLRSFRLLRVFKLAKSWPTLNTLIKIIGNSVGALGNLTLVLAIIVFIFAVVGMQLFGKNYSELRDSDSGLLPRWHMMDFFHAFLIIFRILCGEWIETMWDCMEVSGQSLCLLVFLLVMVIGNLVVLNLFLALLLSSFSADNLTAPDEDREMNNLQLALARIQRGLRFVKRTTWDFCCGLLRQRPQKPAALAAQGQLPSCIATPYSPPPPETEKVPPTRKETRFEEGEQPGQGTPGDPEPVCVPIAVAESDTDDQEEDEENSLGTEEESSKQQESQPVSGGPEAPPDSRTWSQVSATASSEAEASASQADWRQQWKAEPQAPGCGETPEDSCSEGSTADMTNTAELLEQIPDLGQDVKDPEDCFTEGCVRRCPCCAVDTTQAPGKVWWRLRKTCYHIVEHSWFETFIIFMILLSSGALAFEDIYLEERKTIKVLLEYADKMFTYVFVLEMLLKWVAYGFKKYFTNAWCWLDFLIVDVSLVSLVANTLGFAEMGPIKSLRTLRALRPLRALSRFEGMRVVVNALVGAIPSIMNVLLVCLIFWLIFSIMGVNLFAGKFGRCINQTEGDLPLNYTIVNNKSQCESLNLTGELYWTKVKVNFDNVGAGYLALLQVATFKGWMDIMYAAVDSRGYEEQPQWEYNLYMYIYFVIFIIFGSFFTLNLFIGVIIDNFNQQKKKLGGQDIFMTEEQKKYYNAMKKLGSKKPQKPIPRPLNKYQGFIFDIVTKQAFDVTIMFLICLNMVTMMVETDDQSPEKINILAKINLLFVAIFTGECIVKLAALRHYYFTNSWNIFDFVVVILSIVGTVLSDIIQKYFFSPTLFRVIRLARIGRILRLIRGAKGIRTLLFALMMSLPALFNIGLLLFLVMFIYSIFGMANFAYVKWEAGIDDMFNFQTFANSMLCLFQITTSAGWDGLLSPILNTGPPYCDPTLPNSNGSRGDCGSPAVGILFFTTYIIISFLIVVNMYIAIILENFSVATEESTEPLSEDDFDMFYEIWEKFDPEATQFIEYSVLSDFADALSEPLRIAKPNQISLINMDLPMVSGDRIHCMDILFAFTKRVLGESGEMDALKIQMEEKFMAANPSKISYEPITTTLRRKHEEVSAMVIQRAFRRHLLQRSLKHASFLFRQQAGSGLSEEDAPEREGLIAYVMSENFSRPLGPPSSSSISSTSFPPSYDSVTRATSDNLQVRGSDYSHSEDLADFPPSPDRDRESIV
Protocol: (§1) For all electrophysiology experiments, offline analysis was used to correct for current rundown and to determine percent inhibition as a function of drug concentration. IC50 values were determined by fitting to the Hill equation.
(§2) Sodium Current Measurements on the PatchXpress 7000®:
(§3) To measure inactivated state block of sodium channels, test compounds were characterized in an automated PatchXpress® assay (Molecular Devices) using a double-pulse protocol on human Nav1.7 and Nav1.5 channels stably expressed in HEK 293 cells. Cells were held at a potential 20 mV negative to V0.5 inact. An 8000 ms pre-pulse 7 mV positive to V0.5 inact was given followed by a hyperpolarizing 2 ms pulse to −120 mV and a 20 ms test pulse to −20 mV. Protocol was applied to cells in the absence, presence of compound and after washout. The temperature of PatchXpress instruments was maintained at 22° C. The following recording solutions were used. Internal solution (mM): 30 CsCl, 5 HEPES, 10 EGTA, 120 CsF, 5 NaF, 2 MgCl2. External solution (mM): 120 NMDG, 40 NaCl, 1 KCl, 0.5 MgCl2, 5 HEPES, 2.7 CaCl2.

[2] = target: T2, human Nav1.7 channels stably expressed in HEK 293 cells (Homo sapiens, UniProt Q15858); test: as above; assay type: cell-based; settings: PatchXpress technique; read-out: Nav 1.7 potency
T2 construct: expressed in transfected cells; host or cells: HEK 293
T2 sequence (Q15858 whole entry): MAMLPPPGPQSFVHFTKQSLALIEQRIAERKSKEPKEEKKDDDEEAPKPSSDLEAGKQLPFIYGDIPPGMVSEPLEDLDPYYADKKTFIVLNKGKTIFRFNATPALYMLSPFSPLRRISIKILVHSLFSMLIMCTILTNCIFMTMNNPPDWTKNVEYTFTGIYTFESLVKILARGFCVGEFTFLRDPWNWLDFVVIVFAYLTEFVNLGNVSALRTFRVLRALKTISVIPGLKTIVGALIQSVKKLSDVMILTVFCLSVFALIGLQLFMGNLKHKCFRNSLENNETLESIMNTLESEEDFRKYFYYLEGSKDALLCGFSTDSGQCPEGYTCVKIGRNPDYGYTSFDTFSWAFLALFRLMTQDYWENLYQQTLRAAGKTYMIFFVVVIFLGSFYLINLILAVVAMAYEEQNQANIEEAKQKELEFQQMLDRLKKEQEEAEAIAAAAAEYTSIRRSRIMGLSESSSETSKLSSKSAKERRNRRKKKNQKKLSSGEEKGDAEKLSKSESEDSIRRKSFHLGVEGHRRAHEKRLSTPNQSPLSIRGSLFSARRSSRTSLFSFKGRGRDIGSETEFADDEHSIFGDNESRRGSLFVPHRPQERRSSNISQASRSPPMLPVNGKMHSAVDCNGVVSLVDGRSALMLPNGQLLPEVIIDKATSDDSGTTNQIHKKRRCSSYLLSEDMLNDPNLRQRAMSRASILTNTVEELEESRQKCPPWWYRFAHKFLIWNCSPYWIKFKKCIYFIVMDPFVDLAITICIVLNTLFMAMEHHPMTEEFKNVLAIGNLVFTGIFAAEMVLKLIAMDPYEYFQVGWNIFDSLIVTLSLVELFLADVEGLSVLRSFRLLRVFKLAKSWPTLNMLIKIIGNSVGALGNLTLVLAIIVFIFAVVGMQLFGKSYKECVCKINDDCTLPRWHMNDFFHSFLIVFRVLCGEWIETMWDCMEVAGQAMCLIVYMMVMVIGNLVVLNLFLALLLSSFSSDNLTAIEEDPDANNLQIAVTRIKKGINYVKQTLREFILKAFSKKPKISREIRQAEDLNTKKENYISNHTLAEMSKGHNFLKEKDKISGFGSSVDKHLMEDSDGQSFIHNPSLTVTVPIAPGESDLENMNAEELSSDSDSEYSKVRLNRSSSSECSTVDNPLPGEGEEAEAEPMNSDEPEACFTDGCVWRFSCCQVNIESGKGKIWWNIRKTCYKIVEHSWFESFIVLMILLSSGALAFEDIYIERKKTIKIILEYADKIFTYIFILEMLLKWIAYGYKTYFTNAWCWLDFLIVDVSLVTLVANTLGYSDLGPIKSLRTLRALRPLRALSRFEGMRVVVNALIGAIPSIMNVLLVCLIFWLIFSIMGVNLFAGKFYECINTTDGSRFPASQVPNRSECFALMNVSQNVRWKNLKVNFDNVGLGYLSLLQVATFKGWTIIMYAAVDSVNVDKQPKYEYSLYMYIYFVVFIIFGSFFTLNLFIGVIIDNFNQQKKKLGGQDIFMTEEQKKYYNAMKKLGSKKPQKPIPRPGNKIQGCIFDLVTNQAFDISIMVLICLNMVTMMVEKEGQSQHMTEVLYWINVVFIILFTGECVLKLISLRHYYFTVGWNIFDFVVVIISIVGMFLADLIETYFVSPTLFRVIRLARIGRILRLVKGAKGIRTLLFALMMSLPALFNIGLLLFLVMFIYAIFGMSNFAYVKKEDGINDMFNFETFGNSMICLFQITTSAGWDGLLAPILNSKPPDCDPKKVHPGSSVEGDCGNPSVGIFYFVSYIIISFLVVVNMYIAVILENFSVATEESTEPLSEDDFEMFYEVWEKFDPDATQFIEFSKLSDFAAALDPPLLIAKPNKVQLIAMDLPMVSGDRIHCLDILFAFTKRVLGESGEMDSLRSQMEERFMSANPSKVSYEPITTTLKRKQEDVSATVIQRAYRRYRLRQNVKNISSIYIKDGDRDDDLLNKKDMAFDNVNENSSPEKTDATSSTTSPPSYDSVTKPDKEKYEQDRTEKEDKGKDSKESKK
Protocol: as §1, §2, §3

Row | pIC50 [2] | Compound | Ratio 1.5:1.7 = Nav 1.5 potency (nM)/Nav1.7 potency (nM) [1]
1 | 6.16 | C[C@H](c1ccccc1C#C[C@H]1CCCC[C@H]1N)n1ncc2cc(S(=O)(=O)Nc3cccc(F)n3)c(F)cc21 [Ex-50, 1-[(1R)-1-(2-{[(1R,2R)-2-amino-cyclohexyl]ethynyl}phenyl)ethyl]-6-fluoro-N-(6-fluoropyridin-2-yl)-1H-indazole-5-sulfonamide] | 17
2 | 7.24 | Cc1cc2c(cnn2[C@H](C)c2cccc3c2CNCC3)cc1S(=O)(=O)Nc1cccc(F)n1 [Ex-60, N-(6-fluoropyridin-2-yl)-6-methyl-1-[(1R)-1-(1,2,3,4-tetrahydroisoquinolin-8-yl)ethyl]-1H-indazole-5-sulfonamide] | 457
3 | 7.21 | Cc1cc2c(cnn2Cc2cccc3c2CC(N)CC3)cc1S(=O)(=O)Nc1cccc(F)n1 (stereo not drawn) [Ex-61, 1-[(7-amino-5,6,7,8-tetrahydronaphthalen-1-yl)methyl]-N-(6-fluoropyridin-2-yl)-6-methyl-1H-indazole-5-sulfonamide] | 171
4 | 6.23 | C[C@H](c1ccccc1C1CCNCC1)n1ncc2cc(S(=O)(=O)Nc3cccc(F)n3)c(F)cc21 [Ex-43, 6-fluoro-N-(6-fluoropyridin-2-yl)-1-[(1R)-1-(2-piperidin-4-ylphenyl)ethyl]-1H-indazole-5-sulfonamide] | 16
5 | 5.60 | NCC#Cc1ccccc1Cn1ncc2cc(S(=O)(=O)Nc3cccc(F)n3)c(F)cc21 [Ex-44, 1-[2-(3-aminoprop-1-yn-1-yl)benzyl]-6-fluoro-N-(6-fluoropyridin-2-yl)-1H-indazole-5-sulfonamide] | 10
6 | 6.37 | C[C@H](c1ccccc1C#CCN)n1ncc2cc(S(=O)(=O)Nc3cccc(F)n3)c(F)cc21 [Ex-46, 1-{(1R)-1-[2-(3-aminoprop-1-yn-1-yl)phenyl]ethyl}-6-fluoro-N-(6-fluoropyridin-2-yl)-1H-indazole-5-sulfonamide] | 41
7 | 6.08 | O=S(=O)(Nc1cccc(F)n1)c1cc2cnn(Cc3cccc4c3CNC4)c2cc1F [Ex-42, 1-(2,3-dihydro-1H-isoindol-4-ylmethyl)-6-fluoro-N-(6-fluoropyridin-2-yl)-1H-indazole-5-sulfonamide] | 36
8 | 8.10 | NC1CCc2cccc(Cn3ncc4cc(S(=O)(=O)Nc5ncc(Cl)s5)c(F)cc43)c2C1 (stereo not drawn) [Ex-53, 1-[(7-amino-5,6,7,8-tetrahydronaphthalen-1-yl)methyl]-N-(5-chloro-1,3-thiazol-2-yl)-6-fluoro-1H-indazole-5-sulfonamide] | 1193
9 | 6.18 | O=S(=O)(Nc1cccc(F)n1)c1cc2cnn(Cc3cccc4c3CNCC4F)c2cc1F (stereo not drawn) [Ex-49, 6-fluoro-N-(6-fluoropyridin-2-yl)-1-[(4-fluoro-1,2,3,4-tetrahydro-isoquinolin-8-yl)methyl]-1H-indazole-5-sulfonamide] | 45
10 | 6.95 | C[C@H](c1cccc2c1CNCC2)n1cc2cc(S(=O)(=O)Nc3ncc(Cl)s3)c(F)cc2n1 [Ex-55, N-(5-chloro-1,3-thiazol-2-yl)-6-fluoro-2-[(1R)-1-(1,2,3,4-tetrahydro-isoquinolin-8-yl)ethyl]-2H-indazole-5-sulfonamide] | 152
11 | 6.61 | C[C@H](c1ccccc1C#CCN)n1ncc2cc(S(=O)(=O)Nc3ncc(Cl)s3)c(F)cc21 [Ex-56, 1-{(1R)-1-[2-(3-aminoprop-1-yn-1-yl)phenyl]ethyl}-N-(5-chloro-1,3-thiazol-2-yl)-6-fluoro-1H-indazole-5-sulfonamide] | 39
12 | 6.26 | C[C@H](c1ccccc1C#C[C@@H]1CCCC[C@@H]1N)n1ncc2cc(S(=O)(=O)Nc3cccc(F)n3)c(F)cc21 [Ex-47, 1-[(1R)-1-(2-{[(1S,2S)-2-amino-cyclohexyl]ethynyl}phenyl)ethyl]-6-fluoro-N-(6-fluoropyridin-2-yl)-1H-indazole-5-sulfonamide] | 15
13 | 5.97 | O=S(=O)(Nc1cccc(F)n1)c1cc2cnn(Cc3ccccc3I)c2cc1F [Ex-41, 6-fluoro-N-(6-fluoropyridin-2-yl)-1-(2-iodobenzyl)-1H-indazole-5-sulfonamide] | 7
14 | 6.86 | C[C@H](c1cccc2c1CNCC2)n1ncc2cc(S(=O)(=O)Nc3ncc(Cl)s3)c(F)cc21 [Ex-54, N-(5-chloro-1,3-thiazol-2-yl)-6-fluoro-1-[(1R)-1-(1,2,3,4-tetrahydroisoquinolin-8-yl)ethyl]-1H-indazole-5-sulfonamide] | 50
15 | 5.69 | CC(C)(N)CC#Cc1ccccc1Cn1ncc2cc(S(=O)(=O)Nc3cccc(F)n3)c(F)cc21 [Ex-45, 1-[2-(4-amino-4-methylpent-1-yn-1-yl)benzyl]-6-fluoro-N-(6-fluoropyridin-2-yl)-1H-indazole-5-sulfonamide] | 18
16 | 7.64 | Cc1cc2c(cnn2Cc2cccc3c2CC(N)CC3)cc1S(=O)(=O)Nc1nccs1 (stereo not drawn) [Ex-62, 1-[(7-amino-5,6,7,8-tetrahydronaphthalen-1-yl)methyl]-6-methyl-N-1,3-thiazol-2-yl-1H-indazole-5-sulfonamide] | 762

More lines, now with the values behind:

Row | Compound | pIC50 [2] | Ratio 1.5:1.7 = Nav 1.5 potency (nM)/Nav1.7 potency (nM) [1]
17 | C[C@H](c1ccccc1C1CNC1)n1ncc2cc(S(=O)(=O)Nc3cccc(F)n3)c(F)cc21 [Ex-40, 1-[(1R)-1-(2-azetidin-3-ylphenyl)ethyl]-6-fluoro-N-(6-fluoropyridin-2-yl)-1H-indazole-5-sulfonamide] | 6.11 | 11
18 | NCC#Cc1ccccc1Cn1ncc2cc(S(=O)(=O)Nc3nccs3)c(F)cc21 [Ex-29, 1-[2-(3-aminoprop-1-yn-1-yl)benzyl]-6-fluoro-N-1,3-thiazol-2-yl-1H-indazole-5-sulfonamide] | 7.05 | 302
19 | NCc1ccccc1Cn1ncc2cc(S(=O)(=O)Nc3cccc(F)n3)c(F)cc21 [Ex-35, 1-[2-(aminomethyl)benzyl]-6-fluoro-N-(6-fluoropyridin-2-yl)-1H-indazole-5-sulfonamide] | 6.25 | 53
20 | C[C@H](c1ccccc1CCCN)n1ncc2cc(S(=O)(=O)Nc3cccc(F)n3)c(F)cc21 [Ex-33, 1-{(1R)-1-[2-(3-amino-propyl)phenyl]ethyl}-6-fluoro-N-(6-fluoropyridin-2-yl)-1H-indazole-5-sulfonamide] | 6.42 | 228
21 | C[C@H](c1cccc2c1CNCC2)n1ncc2cc(S(=O)(=O)Nc3cccc(F)n3)c(F)cc21 [Ex-37, 6-fluoro-N-(6-fluoropyridin-2-yl)-1-[(1R)-1-(1,2,3,4-tetrahydroisoquinolin-8-yl)ethyl]-1H-indazole-5-sulfonamide] | 6.43 | 64
22 | O=S(=O)(Nc1nccs1)c1cc2cnn(Cc3ccccc3C3=CCNCC3)c2cc1F [Ex-30, 6-fluoro-1-[2-(1,2,3,6-tetrahydropyridin-4-yl)benzyl]-N-1,3-thiazol-2-yl-1H-indazole-5-sulfonamide] | 7.09 | 326
23 | NCC(F)c1ccccc1Cn1ncc2cc(S(=O)(=O)Nc3cccc(F)n3)c(F)cc21 (stereo not drawn) [Ex-38, 1-[2-(2-amino-1-fluoroethyl)benzyl]-6-fluoro-N-(6-fluoropyridin-2-yl)-1H-indazole-5-sulfonamide] | 6.73 | 162
24 | NC1Cc2cccc(Cn3ncc4cc(S(=O)(=O)Nc5cccc(F)n5)c(F)cc43)c2C1 (stereo not drawn) [Ex-39, 1-[(2-amino-2,3-dihydro-1H-inden-4-yl)methyl]-6-fluoro-N-(6-fluoropyridin-2-yl)-1H-indazole-5-sulfonamide] | 6.63 | 129
25 | NC1CCc2cccc(Cn3ncc4cc(S(=O)(=O)Nc5cccc(F)n5)c(F)cc43)c2C1 (single isomer, unassigned) [Ex-31, (R or S)-1-[(7-amino-5,6,7,8-tetrahydronaphthalen-1-yl)methyl]-6-fluoro-N-(6-fluoropyridin-2-yl)-1H-indazole-5-sulfonamide] | 7.25 | 772
26 | NCCCc1ccccc1Cn1ncc2cc(S(=O)(=O)Nc3cccc(F)n3)c(F)cc21 [Ex-32, 1-[2-(3-amino-propyl)benzyl]-6-fluoro-N-(6-fluoropyridin-2-yl)-1H-indazole-5-sulfonamide] | 7.19 | 50
27 | NC1CCc2cccc(Cn3ncc4cc(S(=O)(=O)Nc5nccs5)c(F)cc43)c2C1 (single isomer, unassigned) [Ex-26, (R or S)-1-[(7-amino-5,6,7,8-tetrahydronaphthalen-1-yl)methyl]-6-fluoro-N-1,3-thiazol-2-yl-1H-indazole-5-sulfonamide] | 8.30 | 3231
